This assay deals with P. Falciparum NF54. As to the kind of experiment: Plasmodium falciparum in vitro assay ([3H]-hypoxanthine incorporation). In kind it is cell-based. As to conditions: Plasmodium falciparum, Erythrocyte, P. Falciparum NF54, erythrocytic stages in human red blood cells, 50% human serum. An outline of the steps: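 This in vitro antimalarial assay used P. falciparum erythrocytic stages cultured in human erythrocytes and measured [3H]-hypoxanthine incorporation. Radioactivity on the dried filters, placed in plastic foil with 10 mL scintillation fluid, was counted in a Betaplate liquid scintillation counter. Sigmoidal inhibition curves built in Microsoft Excel gave the IC50.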
What is called IC50 is the concentration that gives 50% inhibition. Regarding `Cc1cc(Nc2ccc(CN(C(=O)/C=C/c3ccc(C(F)(F)F)cc3)C3CCN(C4CCCC4)CC3)cn2)ncn1` [Example 109, (E)-N-(1-Cyclopentyl-piperidin-4-yl)-N-[6-(6-methyl-pyrimidin-4-ylamino)-pyridin-3-ylmethyl]-3-(4-trifluoromethyl-phenyl)-acrylamide], 0.393 µM corresponded to half-maximal inhibition (IC50).
With `CN1CCC(N2CCC(N(Cc3ccc(Nc4ccncc4)nc3)C(=O)/C=C/c3ccc(C(F)(F)F)cc3)CC2)CC1` [Example 110, (E)-N-(1′-Methyl-[1,4′]bipiperidinyl-4-yl)-N-[6-(pyridin-4-ylamino)-pyridin-3-ylmethyl]-3-(4-trifluoromethyl-phenyl)-acrylamide] the figure was 0.171 µM.
The result for `Cc1cc(Nc2ccc(CN(C(=O)/C=C/c3ccc(C(F)(F)F)cc3)C3CCN(C4CCN(C)CC4)CC3)cn2)ccn1` [Example 111, (E)-N-(1′-Methyl-[1,4′]bipiperidinyl-4-yl)-N-[6-(2-methyl-pyridin-4-ylamino)-pyridin-3-ylmethyl]-3-(4-trifluoromethyl-phenyl)-acrylamide] reads 0.165 µM.
The result for `CN1CCC(N2CCC(N(Cc3ccc(N(C)c4ccncc4)nc3)C(=O)/C=C/c3ccc(C(F)(F)F)cc3)CC2)CC1` [Example 112, (E)-N-(1′-Methyl-[1,4′]bipiperidinyl-4-yl)-N-[6-(methyl-pyridin-4-yl-amino)-pyridin-3-ylmethyl]-3-(4-trifluoromethyl-phenyl)-acrylamide] reads 0.039 µM; that for `CN(c1ccncc1)c1ccc(CN(C(=O)/C=C/c2ccc(C(F)(F)F)cc2)[C@@H]2CCN(C3CCCC3)C2)cc1` [Example 113, (E)-N-((R)-1-Cyclopentyl-pyrrolidin-3-yl)-N-[4-(methyl-pyridin-4-yl-amino)-benzyl]-3-(4-trifluoromethyl-phenyl)-acrylamide], 0.078 µM; that for `CN(c1ccncc1)c1ccc(CN(C(=O)/C=C/c2ccc(C(F)(F)F)cc2)[C@H]2CCN(C3CCCC3)C2)cc1` [Example 114, (E)-N-((S)-1-Cyclopentyl-pyrrolidin-3-yl)-N-[4-(methyl-pyridin-4-yl-amino)-benzyl]-3-(4-trifluoromethyl-phenyl)-acrylamide], 0.086 µM.
`CN1CCC(N2CCC(N(Cc3ccc(Nc4ccncc4)cc3)C(=O)/C=C/c3ccc(C(F)(F)F)cc3)CC2)CC1` [Example 115, (E)-N-(1′-Methyl-[1,4′]bipiperidinyl-4-yl)-N-[4-(pyridin-4-ylamino)-benzyl]-3-(4-trifluoromethyl-phenyl)-acrylamide] showed an IC50 of 0.082 µM.
The compound `Cc1cc(Nc2ccc(CN(C(=O)/C=C/c3ccc(C(F)(F)F)cc3)C3CCN(C4CCN(C)CC4)CC3)cc2)ccn1` [Example 116, (E)-N-(1′-Methyl-[1,4′]bipiperidinyl-4-yl)-N-[4-(2-methyl-pyridin-4-ylamino)-benzyl]-3-(4-trifluoromethyl-phenyl)-acrylamide] registered an IC50 of 0.07 µM.
With `Cc1cc(Nc2ccc(CN(C(=O)/C=C/c3ccc(Cl)cc3)C3CCN(C4CCN(C)CC4)CC3)cc2)ccn1` [Example 117, (E)-3-(4-Chloro-phenyl)-N-(1′-methyl-[1,4′]bipiperidinyl-4-yl)-N-[4-(2-methyl-pyridin-4-ylamino)-benzyl]-acrylamide] the figure was 0.305 µM; with `CN1CCC(N2CCC(N(Cc3ccc(Nc4ccncc4)cc3)C(=O)/C=C/c3ccc(OC(F)(F)F)cc3)CC2)CC1` [Example 118, (E)-N-(1′-Methyl-[1,4′]bipiperidinyl-4-yl)-N-[4-(pyridin-4-ylamino)-benzyl]-3-(4-trifluoromethoxy-phenyl)-acrylamide], 0.083 µM.
With `Cc1cc(Nc2ccc(CN(C(=O)/C=C/c3ccc(OC(F)(F)F)cc3)C3CCN(C4CCN(C)CC4)CC3)cc2)ccn1` [Example 119, (E)-N-(1′-Methyl-[1,4′]bipiperidinyl-4-yl)-N-[4-(2-methyl-pyridin-4-ylamino)-benzyl]-3-(4-trifluoromethoxy-phenyl)-acrylamide] the figure was 0.046 µM.
